# In patent publication US8399465B2, “Compounds with two fused bicyclic heteroaryl moieties as modulators of leukotriene A4 hydrolase” (Janssen Pharmaceutica NV, priority 2009, dated 2013):
# Where a name gives a salt, the structure may show the parent alone.
# Assays:
# [1] = test system: LTB4 production in murine blood (LTA4H); test: LTB4 production by calcium ionophore-stimulated murine blood for LTA4H inhibitor activity; type: cell-based, CD-1 mice; details: Mus musculus; murine blood diluted 1 in 15, A23187 stimulated; single determination or average; mark after value = form tested: ′ free base, ″ hydrochloride, ^ formate; read-out: IC50
# Description: Assay 2: LTB4 Production by Calcium Ionophore-Stimulated Murine Blood for LTA4H Inhibitor Activity
# CD-1 mice were sacrificed, and blood was collected in heparin-containing syringes by cardiac puncture. […] After the microtiter plate contents were incubated for 15 min at 37° C. in a humidified incubator, calcium ionophore A23187 (Sigma Chemical Co., St. Louis, Mo.) was added to each sample well (final concentration=7 μg/mL). The incubation was continued under the same conditions for an additional 30 min to allow LTB4 formation. The reaction was terminated by centrifugation (833×g, 10 min at 4° C.), and supernatants were analyzed for LTB4 by a commercially available enzyme-linked immunoassay (Cayman Chemical Co.) according to the manufacturer's instructions. Positive controls, under essentially identical conditions but without addition of an inhibitor compound, and negative unstimulated controls, containing all assay components except calcium ionophore, were routinely run in each experiment. […] The values presented here are the result of a single determination or an average of two or more determinations.
# [2] = target: T1, recombinant human LTA4 hydrolase (rhLTA4H) (Homo sapiens, UniProt P09960); test: Recombinant human LTA4 hydrolase assay for LTA4 hydrolase inhibitor activity; type: biochemical; details: rhLTA4H, LTB4 by immunoassay; single determination or average of two or more; mark after value = form tested: ′ free base, ″ hydrochloride, ^ formate; read-out: IC50
# T1 construct: made in house; host or cells: Spodoptera frugiperda (Sf-9) cells, baculovirus (pFastBac1)
# T1 sequence (P09960 1-611): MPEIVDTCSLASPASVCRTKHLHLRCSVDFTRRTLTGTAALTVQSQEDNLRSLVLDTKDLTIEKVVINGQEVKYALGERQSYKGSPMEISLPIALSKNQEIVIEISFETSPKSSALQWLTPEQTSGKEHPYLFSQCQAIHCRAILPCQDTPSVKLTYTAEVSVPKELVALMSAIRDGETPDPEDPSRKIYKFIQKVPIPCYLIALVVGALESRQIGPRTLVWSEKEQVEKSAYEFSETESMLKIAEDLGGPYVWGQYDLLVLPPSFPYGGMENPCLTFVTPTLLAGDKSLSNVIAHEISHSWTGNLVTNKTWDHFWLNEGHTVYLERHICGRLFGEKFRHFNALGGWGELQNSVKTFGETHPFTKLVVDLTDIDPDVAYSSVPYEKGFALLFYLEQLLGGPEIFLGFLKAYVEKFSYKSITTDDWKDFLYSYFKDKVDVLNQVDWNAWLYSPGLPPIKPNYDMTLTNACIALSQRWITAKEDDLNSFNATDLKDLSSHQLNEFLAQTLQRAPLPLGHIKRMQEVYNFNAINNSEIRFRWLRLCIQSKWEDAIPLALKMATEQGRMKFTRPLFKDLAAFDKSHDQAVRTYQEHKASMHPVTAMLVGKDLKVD
# Procedure, shortened: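 LTB4 formation, measured by enzyme immunoassay, was the read-out. The enzyme, recombinant human LTA4H expressed in Sf-9 insect cells (10 ng per reaction), was exposed to compound for 10 min at room temperature before hydrolysed-ester LTA4 substrate was added for 30 min. Enzyme-free negatives were included.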
Compound,IC50 [1],IC50 [2]
"c1cnc2nc(Oc3ccc4oc(CN5CCCCC5)cc4c3)sc2c1 [Example 86, 2-(2-Piperidin-1-ylmethyl-benzofuran-5-yloxy)-thiazolo[4,5-b]pyridine]",85 nM,68 nM
"CC(=O)N[C@H]1C[C@H]2CC[C@@H](C1)N2Cc1c[nH]c2cc(Oc3nc4c(F)cccc4s3)ccc12 [Example 14, meso-endo-N-{8-[6-(4-Fluoro-benzothiazol-2-yloxy)-1H-indol-3-ylmethyl]-8-aza-bicyclo[3.2.1]oct-3-yl}-acetamide]",66 nM,–
"c1cnc2nc(Oc3ccc4oc(CN5CC6COCC6C5)cc4c3)sc2c1 (stereo not drawn) [Example 113, 2-[2-(Tetrahydro-furo[3,4-c]pyrrol-5-ylmethyl)-benzofuran-5-yloxy]-thiazolo[4,5-b]pyridine]",–,283 nM
"CC(=O)N1C[C@@H]2C[C@H]1CN2Cc1cc2ccc(Oc3nc4cccnc4s3)cc2o1 [Example 122, (1S,4S)-1-{5-[6-(Thiazolo[5,4-b]pyridin-2-yloxy)-benzofuran-2-ylmethyl]-2,5-diaza-bicyclo[2.2.1]hept-2-yl}-ethanone]",–,3430 nM
"c1cnc2nc(Oc3ccc4cc(CN5CC6COCC6C5)oc4c3)sc2c1 (stereo not drawn) [Example 110, 2-[2-(Tetrahydro-furo[3,4-c]pyrrol-5-ylmethyl)-benzofuran-6-yloxy]-thiazolo[4,5-b]pyridine formate]",–,207 nM
"O=C(C1CCN(Cc2cc3ccc(Oc4nc5ncccc5s4)cc3o2)CC1)N1CCCC1 [Example 205, Pyrrolidin-1-yl-{1-[6-(thiazolo[4,5-b]pyridin-2-yloxy)-benzofuran-2-ylmethyl]-piperidin-4-yl}-methanone]",–,120 nM
"c1ccc2sc(Oc3ccc4[nH]cc(CN5CCCC5)c4c3)nc2c1 [Example 9, 2-(3-Pyrrolidin-1-ylmethyl-1H-indol-5-yloxy)-benzothiazole]",–,591 nM
"c1ccc2sc(Oc3ccc4cc(CN5CCCCC5)oc4c3)nc2c1 [Example 406, 2-(2-Piperidin-1-ylmethyl-benzofuran-6-yloxy)-benzothiazole]",–,492 nM
"CC(=O)N[C@H]1C[C@H]2CC[C@@H](C1)N2Cc1cc2ccc(Oc3nc4cccnc4s3)cc2o1 [Example 126, meso-endo-N-{8-[6-(Thiazolo[5,4-b]pyridin-2-yloxy)-benzofuran-2-ylmethyl]-8-aza-bicyclo[3.2.1]oct-3-yl}-acetamide]",–,610 nM
"CN(Cc1ccccc1)C(=O)c1cc2cc(Oc3nc4ncccc4s3)ccc2o1 [Example 365, 5-(Thiazolo[4,5-b]pyridin-2-yloxy)-benzofuran-2-carboxylic acid benzyl-methyl-amide]",–,110 nM
"CC(=O)N1C[C@H]2CC[C@@H](C1)N2Cc1cc2cc(Oc3nc4cccnc4s3)ccc2o1 [Example 123, meso-1-{8-[5-(Thiazolo[5,4-b]pyridin-2-yloxy)-benzofuran-2-ylmethyl]-3,8-diaza-bicyclo[3.2.1]oct-3-yl}-ethanone]",–,89 nM
"O=C(NCc1coc2cc(Oc3nc4ncccc4s3)ccc12)[C@@H]1C[C@@H]2CC[C@H]1C2 (relative stereo) [Example 389, endo-Bicyclo[2.2.1]heptane-2-carboxylic acid [6-(thiazolo[4,5-b]pyridin-2-yloxy)-benzofuran-3-ylmethyl]-amide]",–,120 nM

# The remaining compounds from weak to strong by IC50 [2], led by results:
IC50 [1],IC50 [2],Compound
1110 nM,100 nM,"c1ccc2sc(Oc3ccc4[nH]c(CN5CCCCC5)cc4c3)nc2c1 [Example 65, 2-(2-Piperidin-1-ylmethyl-1H-indol-5-yloxy)-benzothiazole]"
–,85 nM,"O=C(Cc1ccc(Cl)cc1)NCc1coc2cc(Oc3nc4ncccc4s3)ccc12 [Example 394, 2-(4-Chloro-phenyl)-N-[6-(thiazolo[4,5-b]pyridin-2-yloxy)-benzofuran-3-ylmethyl]-acetamide]"
560 nM,74 nM,"Cc1cc(CC(=O)NCc2coc3cc(Oc4nc5ncccc5s4)ccc23)on1 [Example 391, 2-(3-Methyl-isoxazol-5-yl)-N-[6-(thiazolo[4,5-b]pyridin-2-yloxy)-benzofuran-3-ylmethyl]-acetamide]"
–,52 nM,"O=C(O)c1ccc(C(=O)NCc2coc3cc(Oc4nc5ncccc5s4)ccc23)cc1 [Example 396, N-[6-(Thiazolo[4,5-b]pyridin-2-yloxy)-benzofuran-3-ylmethyl]-terephthalamic acid]"
1130 nM,30 nM,"c1ccc2sc(Oc3ccc4[nH]c(CN5CCCC5)cc4c3)nc2c1 [Example 66, 2-(2-Pyrrolidin-1-ylmethyl-1H-indol-5-yloxy)-benzothiazole]"
150 nM,20 nM,"c1csc(CNCc2coc3cc(Oc4nc5ncccc5s4)ccc23)c1 [Example 300, [6-(Thiazolo[4,5-b]pyridin-2-yloxy)-benzofuran-3-ylmethyl]-thiophen-2-ylmethyl-amine]"
290 nM,20 nM,"CN(Cc1cccnc1)Cc1coc2cc(Oc3nc4ncccc4s3)ccc12 [Example 178, Methyl-pyridin-3-ylmethyl-[6-(thiazolo[4,5-b]pyridin-2-yloxy)-benzofuran-3-ylmethyl]-amine]"
260 nM,18 nM,"O=C(c1cnccn1)N1C[C@@H]2C[C@H]1CN2Cc1coc2cc(Oc3nc4ncccc4s3)ccc12 [Example 356, (1S,4S)-Pyrazin-2-yl-{5-[6-(thiazolo[4,5-b]pyridin-2-yloxy)-benzofuran-3-ylmethyl]-2,5-diaza-bicyclo[2.2.1]hept-2-yl}-methanone]"
310 nM,18 nM,"CS(=O)(=O)NCCC1CCN(Cc2coc3cc(Oc4nc5ccccc5s4)ccc23)CC1 [Example 364, N-(2-{1-[6-(Benzothiazol-2-yloxy)-benzofuran-3-ylmethyl]-piperidin-4-yl}-ethyl)-methanesulfonamide]"
72 nM,17 nM,"CN(C)C1CCN(Cc2coc3cc(Oc4nc5ncccc5s4)ccc23)CC1 [Example 282, Dimethyl-{1-[6-(thiazolo[4,5-b]pyridin-2-yloxy)-benzofuran-3-ylmethyl]-piperidin-4-yl}-amine formate]"
28 nM,15 nM,"CCCOC1CN(Cc2coc3cc(Oc4nc5ncccc5s4)ccc23)C1 [Example 314, 2-[3-(3-Propoxy-azetidin-1-ylmethyl)-benzofuran-6-yloxy]-thiazolo[4,5-b]pyridine]"
152 nM,13 nM,"c1ccc2oc(Oc3ccc4c(CN5CCCCC5)c[nH]c4c3)nc2c1 [Example 15, 2-(3-Piperidin-1-ylmethyl-1H-indol-6-yloxy)-benzooxazole]"
130 nM,12 nM,"c1cnc2nc(Oc3ccc4c(CN5CCN(C6CC6)CC5)coc4c3)sc2c1 [Example 277, 2-[3-(4-Cyclopropyl-piperazin-1-ylmethyl)-benzofuran-6-yloxy]-thiazolo[4,5-b]pyridine]"
610 nM,12 nM,"CC(=O)N1C[C@H]2C[C@@H]1CN2Cc1cc2ncc(Oc3nc4ncccc4s3)cc2o1 [Example 340, (1R,4R)-1-{5-[6-(Thiazolo[4,5-b]pyridin-2-yloxy)-furo[3,2-b]pyridin-2-ylmethyl]-2,5-diaza-bicyclo[2.2.1]hept-2-yl}-ethanone formate]"
143 nM,11 nM,"O=C1CCCN1C1CCN(Cc2c[nH]c3cc(Oc4nc5ccccc5s4)ccc23)CC1 [Example 30, 1-{1-[6-(Benzothiazol-2-yloxy)-1H-indol-3-ylmethyl]-piperidin-4-yl}-pyrrolidin-2-one]"
833 nM,10 nM,"FC(F)(F)C1CCN(Cc2cc3ccc(Oc4nc5ncccc5s4)cc3o2)CC1 [Example 191, 2-[2-(4-Trifluoromethyl-piperidin-1-ylmethyl)-benzofuran-6-yloxy]-thiazolo[4,5-b]pyridine formate]"
40 nM,4 nM,"c1cnc2nc(Oc3ccc4c(CN5CCN(c6ccncc6)CC5)coc4c3)sc2c1 [Example 289, 2-[3-(4-Pyridin-4-yl-piperazin-1-ylmethyl)-benzofuran-6-yloxy]-thiazolo[4,5-b]pyridine formate]"
